Experimental data reported in paper PMC12030627, “Radioiodinated Bicyclic RGD Peptide Derivatives for Enhanced Tumor Accumulation” (Pharmaceuticals, 2025).
Read-outs that look alike come from different tables or passages of the source. Starred links: 1 amine or outer side, 2 acyl side, 3 side chain; linkers in the order of their positions; H or OH if unused. Positions of bridges follow the written chain, without caps; N, C: chain ends. Non-standard residues stand in square brackets, D forms with d. Residues, ends and D or L forms follow the SMILES beside them. *: point of attachment. TBMB = c1c(C[*:1])cc(C[*:3])cc1C[*:2]; Palmitoyl = CCCCCCCCCCCCCCCC(=O)*; Benzoyl(3-I) = O=C(c1cccc(I)c1)*; 4Abz = Nc1ccc(C(=O)O)cc1

Assay: Biodistribution in U-87 MG tumor-bearing mice
Type: in vivo, BALB/c nu-nu mice
Conditions: male, BALB/c nu-nu, mouse, iv, 37 kBq, total radioactivity; for tissue uptake at 5 min / tissue uptake dose at 5 min: 5 min after i.v. administration; for tissue uptake at 0.5 h / tissue uptake dose at 0.5 h: 30 min after i.v. administration; for tissue uptake at 1 h / tissue uptake dose at 1 h: 1 h after i.v. administration; for tissue uptake at 2 h / tissue uptake dose at 2 h: 2 h after i.v. administration; for tissue uptake at 6 h / tissue uptake dose at 6 h: 6 h after i.v. administration
In short: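 Male BALB/c nu/nu mice bearing subcutaneous U-87 MG (right leg), or also A549 (left leg), tumors ~10 mm; 37 kBq radiotracer given IV in PBS-0.1% Tween 80. Single-tumor mice sampled 5 min–24 h, co-implanted mice at 2 h (or 30 min–4 h for dimer); organ radioactivity counted by NaI scintillation, expressed as %ID/g.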

[1] = U-87 MG tumor, U-87 MG-bearing mice, mean ± SD, n = 3, read-out: Radioactivity in U-87 MG tumor
[2] = blood, U-87 MG-bearing mice, mean ± SD, n = 3, read-out: Radioactivity in blood
[3] = bone, U-87 MG-bearing mice, mean ± SD, n = 3, read-out: Radioactivity in bone
[4] = brain, U-87 MG-bearing mice, mean ± SD, n = 3, read-out: Radioactivity in brain
[5] = heart, U-87 MG-bearing mice, mean ± SD, n = 3, read-out: Radioactivity in heart
[6] = kidneys, U-87 MG-bearing mice, mean ± SD, n = 3, read-out: Radioactivity in kidneys
[7] = large intestine, U-87 MG-bearing mice, mean ± SD, n = 3, read-out: Radioactivity in large intestine
[8] = liver, U-87 MG-bearing mice, mean ± SD, n = 3, read-out: Radioactivity in liver
[9] = lung, U-87 MG-bearing mice, mean ± SD, n = 3, read-out: Radioactivity in lung
[10] = muscle, U-87 MG-bearing mice, mean ± SD, n = 3, read-out: Radioactivity in muscle
[11] = pancreas, U-87 MG-bearing mice, mean ± SD, n = 3, read-out: Radioactivity in pancreas
[12] = small intestine, U-87 MG-bearing mice, mean ± SD, n = 3, read-out: Radioactivity in small intestine
[13] = spleen, U-87 MG-bearing mice, mean ± SD, n = 3, read-out: Radioactivity in spleen
[14] = stomach, U-87 MG-bearing mice, mean ± SD, n = 3, read-out: Radioactivity in stomach
[15] = thyroid, U-87 MG-bearing mice, mean ± SD, n = 3, read-out: Radioactivity in thyroid

Structure (SMILES): CCCCCCCCCCCCCCCC(=O)N[C@@H](CCCCNC(=O)c1cccc(I)c1)C(=O)N1CCC[C@H]1C(=O)N1CCC[C@H]1C(=O)N1CCC[C@H]1C(=O)N[C@@H](CO)C(=O)NCC(=O)Nc1ccc(C(=O)N[C@@H](CO)C(=O)NCC(=O)N[C@H]2CSCc3cc4cc(c3)CSC[C@@H](NC(=O)[C@H](CCC(N)=O)NC(=O)[C@@H]3CCCN3C(=O)[C@H](Cc3c[nH]cn3)NC2=O)C(=O)N[C@@H](CCCNC(=N)N)C(=O)NCC(=O)N[C@@H](CC(=O)O)C(=O)N[C@@H](C(N)=O)CSC4)cc1 [[^125I]bcRGDpal] (Palmitoyl-K(Benzoyl(3-I))PPPSG[4Abz]SGCHPQ[dC]RGD[dC]-NH2; linker 10-14-18 via TBMB)
- tissue uptake at 5 min [1]: 1.4 ± 0.2 %ID/g
- tissue uptake at 0.5 h [1]: 3.4 ± 0.5 %ID/g
- tissue uptake at 1 h [1]: 4 ± 0.5 %ID/g
- tissue uptake at 2 h [1]: 3.9 ± 0.2 %ID/g
- tissue uptake at 6 h [1]: 2.1 ± 0.4 %ID/g
- tissue uptake at 12 h (U-87 MG tumor, 12 h after i.v. administration, U-87 MG-bearing mice, mean ± SD, n = 3, read-out: Radioactivity in U-87 MG tumor): 0.9 ± 0.1 %ID/g
- tissue uptake at 24 h (U-87 MG tumor, 24 h after i.v. administration, U-87 MG-bearing mice, mean ± SD, n = 3, read-out: Radioactivity in U-87 MG tumor): 0.3 ± 0.1 %ID/g
- tissue to tissue ratio (U-87 MG tumor/blood, all time points (5 min to 24 h)): < 1
- tissue uptake at 5 min [2]: 15.6 ± 1 %ID/g
- tissue uptake at 0.5 h [2]: 12.2 ± 0.8 %ID/g
- tissue uptake at 1 h [2]: 9.9 ± 0.5 %ID/g
- tissue uptake at 2 h [2]: 7.8 ± 0.4 %ID/g
- tissue uptake at 6 h [2]: 4.5 ± 0.4 %ID/g
- tissue uptake at 12 h (blood, 12 h after i.v. administration, U-87 MG-bearing mice, mean ± SD, n = 3, read-out: Radioactivity in blood): 2 ± 0.3 %ID/g
- tissue uptake at 24 h (blood, 24 h after i.v. administration, U-87 MG-bearing mice, mean ± SD, n = 3, read-out: Radioactivity in blood): 0.5 %ID/g
- tissue uptake at 5 min [3]: 1.4 ± 0.1 %ID/g
- tissue uptake at 0.5 h [3]: 1.7 ± 0.6 %ID/g
- tissue uptake at 1 h [3]: 1.1 ± 0.3 %ID/g
- tissue uptake at 2 h [3]: 1.3 ± 0.4 %ID/g
- tissue uptake at 6 h [3]: 0.7 ± 0.1 %ID/g
- tissue uptake at 12 h (bone, 12 h after i.v. administration, U-87 MG-bearing mice, mean ± SD, n = 3, read-out: Radioactivity in bone): 0.4 %ID/g
- tissue uptake at 24 h (bone, 24 h after i.v. administration, U-87 MG-bearing mice, mean ± SD, n = 3, read-out: Radioactivity in bone): 0.1 ± 0.1 %ID/g
- tissue uptake at 5 min [4]: 0.5 ± 0.1 %ID/g
- tissue uptake at 0.5 h [4]: 0.3 ± 0.1 %ID/g
- tissue uptake at 1 h [4]: 0.3 %ID/g
- tissue uptake at 2 h [4]: 0.2 %ID/g
- tissue uptake at 6 h [4]: 0.1 %ID/g
- tissue uptake at 12 h (brain, 12 h after i.v. administration, U-87 MG-bearing mice, mean ± SD, n = 3, read-out: Radioactivity in brain): 0.1 %ID/g
- tissue uptake at 5 min [5]: 6.6 ± 0.1 %ID/g
- tissue uptake at 0.5 h [5]: 4.7 ± 0.4 %ID/g
- tissue uptake at 1 h [5]: 4.3 ± 0.3 %ID/g
- tissue uptake at 2 h [5]: 3.1 ± 0.2 %ID/g
- tissue uptake at 6 h [5]: 1.7 %ID/g
- tissue uptake at 12 h (heart, 12 h after i.v. administration, U-87 MG-bearing mice, mean ± SD, n = 3, read-out: Radioactivity in heart): 0.8 ± 0.1 %ID/g
- tissue uptake at 24 h (heart, 24 h after i.v. administration, U-87 MG-bearing mice, mean ± SD, n = 3, read-out: Radioactivity in heart): 0.2 %ID/g
- tissue uptake at 5 min [6]: 9 ± 0.2 %ID/g
- tissue uptake at 0.5 h [6]: 8.3 ± 0.9 %ID/g
- tissue uptake at 1 h [6]: 7.7 ± 0.2 %ID/g
- tissue uptake at 2 h [6]: 6.7 ± 0.6 %ID/g
- tissue uptake at 6 h [6]: 4.2 ± 0.6 %ID/g
- tissue uptake at 12 h (kidneys, 12 h after i.v. administration, U-87 MG-bearing mice, mean ± SD, n = 3, read-out: Radioactivity in kidneys): 1.7 ± 0.2 %ID/g
- tissue uptake at 24 h (kidneys, 24 h after i.v. administration, U-87 MG-bearing mice, mean ± SD, n = 3, read-out: Radioactivity in kidneys): 0.4 %ID/g
- tissue uptake at 5 min [7]: 0.9 ± 0.1 %ID/g
- tissue uptake at 0.5 h [7]: 1.4 ± 0.2 %ID/g
- tissue uptake at 1 h [7]: 1.4 ± 0.1 %ID/g
- tissue uptake at 2 h [7]: 6.9 ± 1.1 %ID/g
- tissue uptake at 6 h [7]: 11.8 ± 2 %ID/g
- tissue uptake at 12 h (large intestine, 12 h after i.v. administration, U-87 MG-bearing mice, mean ± SD, n = 3, read-out: Radioactivity in large intestine): 7.5 ± 0.8 %ID/g
- tissue uptake at 24 h (large intestine, 24 h after i.v. administration, U-87 MG-bearing mice, mean ± SD, n = 3, read-out: Radioactivity in large intestine): 2.3 ± 1.1 %ID/g
- tissue uptake at 5 min [8]: 17.6 ± 0.9 %ID/g
- tissue uptake at 0.5 h [8]: 19 ± 2.1 %ID/g
- tissue uptake at 1 h [8]: 15.8 ± 0.9 %ID/g
- tissue uptake at 2 h [8]: 12.3 ± 0.3 %ID/g
- tissue uptake at 6 h [8]: 6 ± 0.2 %ID/g
- tissue uptake at 12 h (liver, 12 h after i.v. administration, U-87 MG-bearing mice, mean ± SD, n = 3, read-out: Radioactivity in liver): 1.9 ± 0.2 %ID/g
- tissue uptake at 24 h (liver, 24 h after i.v. administration, U-87 MG-bearing mice, mean ± SD, n = 3, read-out: Radioactivity in liver): 0.5 %ID/g
- tissue uptake at 5 min [9]: 11.8 ± 1.3 %ID/g
- tissue uptake at 0.5 h [9]: 11.2 ± 1 %ID/g
- tissue uptake at 1 h [9]: 9.6 ± 1.3 %ID/g
- tissue uptake at 2 h [9]: 7.8 ± 1 %ID/g
- tissue uptake at 6 h [9]: 4.4 ± 0.5 %ID/g
- tissue uptake at 12 h (lung, 12 h after i.v. administration, U-87 MG-bearing mice, mean ± SD, n = 3, read-out: Radioactivity in lung): 2.2 ± 0.3 %ID/g
- tissue uptake at 24 h (lung, 24 h after i.v. administration, U-87 MG-bearing mice, mean ± SD, n = 3, read-out: Radioactivity in lung): 0.6 ± 0.1 %ID/g
- tissue uptake at 5 min [10]: 1.4 ± 0.3 %ID/g
- tissue uptake at 0.5 h [10]: 1.6 ± 0.2 %ID/g
- tissue uptake at 1 h [10]: 1.4 ± 0.2 %ID/g
- tissue uptake at 2 h [10]: 1.1 ± 0.1 %ID/g
- tissue uptake at 6 h [10]: 0.6 ± 0.1 %ID/g
- tissue uptake at 12 h (muscle, 12 h after i.v. administration, U-87 MG-bearing mice, mean ± SD, n = 3, read-out: Radioactivity in muscle): 0.3 %ID/g
- tissue uptake at 24 h (muscle, 24 h after i.v. administration, U-87 MG-bearing mice, mean ± SD, n = 3, read-out: Radioactivity in muscle): 0.1 %ID/g
- tissue uptake at 5 min [11]: 2.8 ± 0.2 %ID/g
- tissue uptake at 0.5 h [11]: 2.5 ± 0.3 %ID/g
- tissue uptake at 1 h [11]: 1.9 ± 0.1 %ID/g
- tissue uptake at 2 h [11]: 1.6 ± 0.1 %ID/g
- tissue uptake at 6 h [11]: 1.2 ± 0.3 %ID/g
- tissue uptake at 12 h (pancreas, 12 h after i.v. administration, U-87 MG-bearing mice, mean ± SD, n = 3, read-out: Radioactivity in pancreas): 0.4 %ID/g
- tissue uptake at 24 h (pancreas, 24 h after i.v. administration, U-87 MG-bearing mice, mean ± SD, n = 3, read-out: Radioactivity in pancreas): 0.1 %ID/g
- tissue uptake at 5 min [12]: 2.3 ± 0.2 %ID/g
- tissue uptake at 0.5 h [12]: 4.5 ± 0.6 %ID/g
- tissue uptake at 1 h [12]: 7 ± 0.3 %ID/g
- tissue uptake at 2 h [12]: 9.3 ± 0.9 %ID/g
- tissue uptake at 6 h [12]: 4 ± 0.2 %ID/g
- tissue uptake at 12 h (small intestine, 12 h after i.v. administration, U-87 MG-bearing mice, mean ± SD, n = 3, read-out: Radioactivity in small intestine): 1.9 ± 0.5 %ID/g
- tissue uptake at 24 h (small intestine, 24 h after i.v. administration, U-87 MG-bearing mice, mean ± SD, n = 3, read-out: Radioactivity in small intestine): 0.3 %ID/g
- tissue uptake at 5 min [13]: 5.1 ± 0.4 %ID/g
- tissue uptake at 0.5 h [13]: 5.9 ± 0.8 %ID/g
- tissue uptake at 1 h [13]: 4.6 ± 0.6 %ID/g
- tissue uptake at 2 h [13]: 3.7 ± 0.1 %ID/g
- tissue uptake at 6 h [13]: 1.9 ± 0.2 %ID/g
- tissue uptake at 12 h (spleen, 12 h after i.v. administration, U-87 MG-bearing mice, mean ± SD, n = 3, read-out: Radioactivity in spleen): 0.8 ± 0.1 %ID/g
- tissue uptake at 24 h (spleen, 24 h after i.v. administration, U-87 MG-bearing mice, mean ± SD, n = 3, read-out: Radioactivity in spleen): 0.2 %ID/g
- tissue uptake dose at 5 min [14]: 0.5 ± 0.1 %ID
- tissue uptake dose at 0.5 h [14]: 0.6 ± 0.1 %ID
- tissue uptake dose at 1 h [14]: 0.7 ± 0.1 %ID
- tissue uptake dose at 2 h [14]: 0.8 ± 0.1 %ID
- tissue uptake dose at 6 h [14]: 0.4 %ID
- tissue uptake dose at 12 h (stomach, 12 h after i.v. administration, U-87 MG-bearing mice, mean ± SD, n = 3): 0.4 ± 0.3 %ID
- tissue uptake dose at 24 h (stomach, 24 h after i.v. administration, U-87 MG-bearing mice, mean ± SD, n = 3): 0.1 ± 0.1 %ID
- tissue uptake dose at 5 min [15]: 0.1 %ID
- tissue uptake dose at 0.5 h [15]: 0.1 ± 0.1 %ID
- tissue uptake dose at 1 h [15]: 0.1 ± 0.1 %ID
- tissue uptake dose at 2 h [15]: 0.1 ± 0.1 %ID
- tissue uptake dose at 6 h [15]: 0.1 %ID
